ChEMBL document CHEMBL4419121, “Tetrahydropyridopyrazines modulators of gpr6” (2018)

How the values were obtained:
[1] = biological target: T1, G-protein coupled receptor 6 (Homo sapiens, UniProt P46095); experiment: Modulation activity at GPR6 receptor (unknown origin) expressed in CHO-K1 cells assessed as inhibition of constitutive cAMP activity incubated for 45 mins by Perkin Elmer Lance HTRF Ultrac-AMP assay; assay type: functional, cell-based
[2] = biological target: T1, G-protein coupled receptor 6; experiment: Modulation activity at GPR6 receptor (unknown origin) expressed in CHO-K1 cells assessed as inhibition of constitutive cAMP activity incubated for 45 mins in presence of 300 uM IBMX by Perkin Elmer Lance HTRF Ultrac-AMP assay; assay type: functional, cell-based

T1 sequence (P46095 whole entry): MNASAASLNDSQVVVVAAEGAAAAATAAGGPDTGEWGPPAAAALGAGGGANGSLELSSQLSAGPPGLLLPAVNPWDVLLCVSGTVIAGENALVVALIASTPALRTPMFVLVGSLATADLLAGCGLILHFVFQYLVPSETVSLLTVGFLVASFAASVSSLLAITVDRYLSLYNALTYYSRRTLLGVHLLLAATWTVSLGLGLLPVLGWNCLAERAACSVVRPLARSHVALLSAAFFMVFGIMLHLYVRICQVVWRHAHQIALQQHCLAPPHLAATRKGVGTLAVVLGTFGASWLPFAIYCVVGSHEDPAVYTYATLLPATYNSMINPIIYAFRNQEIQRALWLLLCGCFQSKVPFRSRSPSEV

SMILES | IC50 ([2]; cho-k1) [nM] | also measured
COc1ccc(OC2CCN(c3nc4c(nc3NC3CCC3)CCN(C(C)=O)C4)CC2)c(F)c1 | – | IC50 [1]: 12 nM
CC(=O)N1CCc2nc(N3CCN(Cc4ccc(F)cc4F)CC3)c(N[C@H]3CCOC3)nc2C1 | 97.8 | –
CO[C@H](C)C(=O)N1Cc2nc(N3CCC(Oc4ccc(F)cc4F)CC3)c(NCC(F)F)nc2CC1C (stereo not given in full) | – | IC50 [1]: 18.5 nM
CC(=O)N1CCc2nc(N3CCC(Oc4ccc(F)cc4F)CC3)c(NC3CCC3)nc2C1 | 55 | –
COC(C)C(=O)N1CCc2nc(N3CCC(Oc4ccc(F)cc4F)CC3)c(NC(C)C)nc2C1 (stereo not given) | – | IC50 [1]: 16.8 nM
CC(=O)N1CCc2nc(N3CCC([C@@H](F)c4ccc(F)cc4F)CC3)c(NC(C)C)nc2C1 | 37.8 | –
COc1ccc(OC2CCN(c3nc4c(nc3NC3CCC3)CN(C(=O)N(C)C)CC4)CC2)c(F)c1 | – | IC50 [1]: 32.5 nM
O=C(C(F)F)N1CCc2nc(N3CCC(Oc4ccc(F)cc4F)CC3)c(NCC(F)F)nc2C1 | – | IC50 [1]: 78.8 nM
[2H]C([2H])([2H])C(=O)N1CCc2nc(N3CCC(Oc4ccc(F)cc4F)CC3)c(NC(C)C)nc2C1 | – | IC50 [2]: 33.7 nM
COc1ccc(OC2CCN(c3nc4c(nc3NC(C)C)CCN(C(C)=O)C4)CC2)c(F)c1 | 62.5 | –
CC(=O)N1CCc2nc(N3CCC(C(F)c4ccc(F)cc4F)CC3)c(NC(C)C)nc2C1 (stereo not given) | – | IC50 [1]: 13.4 nM
CC1c2nc(NCC(F)F)c(N3CCC(Oc4ccc(F)cc4F)CC3)nc2CCN1S(C)(=O)=O (stereo not given) | – | IC50 [1]: 87 nM
CS(=O)(=O)N1CCc2nc(N3CCC(Oc4ccc(F)cc4F)CC3)c(NCC(F)F)nc2C1 | – | IC50 [1]: 57.2 nM
CC(=O)N1CCc2nc(N3CCN(Cc4ccc(F)cc4F)CC3)c(NC3CCC3)nc2C1 | 43.7 | –
CC(=O)N1CCc2nc(NC(C)C)c(N3CCC(S(=O)(=O)c4cccc(F)c4)CC3)nc2C1 | 250 | –
CC(C)Nc1nc2c(nc1N1CCC(Oc3ccc(F)cc3F)CC1)CCN(C(=O)C(F)F)C2 | 129 | –
CC(C)Nc1nc2c(nc1N1CCC(Oc3ccc(F)cc3F)CC1)C(C)N(S(C)(=O)=O)CC2 (stereo not given) | – | IC50 [1]: 98 nM
CC(=O)N1CCc2nc(NC(C)C)c(N3CCC(Oc4ccc(F)cc4F)CC3)nc2C1C (stereo not given) | – | IC50 [1]: 88 nM
COCC(=O)N1CCc2nc(NC(C)C)c(N3CCC(Oc4ccc(F)cc4F)CC3)nc2C1 | – | IC50 [1]: 17.3 nM
CC(C)Nc1nc2c(nc1N1CCC(Oc3ccc(F)cc3F)CC1)CN(C(=O)C1CC1)CC2 | 211 | –
CC(C)Nc1nc2c(nc1N1CCC(Oc3ccc(F)cc3F)CC1)CN(C(=O)C1CCCO1)CC2 (stereo not given) | – | IC50 [1]: 19.5 nM
CS(=O)(=O)N1CCc2nc(NCC(F)F)c(N3CCC(Oc4ccc(F)cc4F)CC3)nc2C1 | 163 | –
CC(C)Nc1nc2c(nc1N1CCC(Oc3ccc(F)cc3F)CC1)CCN(S(C)(=O)=O)C2 | 61.8 | –
CC(=O)N1CCc2nc(NC(C)C)c(N3CCC(S(=O)(=O)c4ccc(F)cc4)CC3)nc2C1 | 188 | –
CC(C)Nc1nc2c(nc1N1CCC(Oc3ccc(F)cc3F)CC1)CCN(C(=O)C1CC1)C2 | 340 | –
CC1c2nc(NCC(F)F)c(N3CCC(Oc4ccc(F)cc4F)CC3)nc2CCN1C(=O)C(F)F (stereo not given) | 212 | –
CC(C)Nc1nc2c(nc1N1CCC(C(F)c3ccc(F)cc3F)CC1)CN(C)CC2 (stereo not given) | 17.1 | –

SMILES | IC50 ([2]; cho-k1) [nM] | also measured
CC(C)Nc1nc2c(nc1N1CCC(C(F)c3ccc(F)cc3F)CC1)CCN(C)C2 (stereo not given) | 30.3 | –
CC(C)Nc1nc2c(nc1N1CCC(Oc3ccc(F)cc3F)CC1)CN(CC(F)F)CC2 | 200 | –
COc1ccc(OC2CCN(c3nc4c(nc3NC(C)C)CN(C)CC4)CC2)c(F)c1 | 140 | –
CC(=O)N1CCc2nc(N3CCN(Cc4ccc(F)cc4F)CC3)c(NC(C)C)nc2C1 | 27 | –
COCC(=O)N1CCc2nc(NCC(F)F)c(N3CCC(Oc4ccc(F)cc4F)CC3)nc2C1 | 79.5 | –
CC(C)Nc1nc2c(nc1N1CCC(Oc3ccc(F)cc3F)CC1)CCN(C)C2 | 90.1 | –
CS(=O)(=O)N1CCc2nc(N3CCC(Oc4ccc(F)cc4F)CC3)c(NC3CCC3)nc2C1 | 49.3 | –
CCC(=O)N1CCc2nc(N3CCN(Cc4ccc(F)cc4F)CC3)c(NC(C)C)nc2C1 | 30.9 | –
CC[C@H](C)Nc1nc2c(nc1N1CCC(Oc3ccc(F)cc3F)CC1)CCN(C(C)=O)C2 | 62 | –
CCC(=O)N1CCc2nc(N3CCN(Cc4ccc(F)cc4F)CC3)c(N[C@H]3CCOC3)nc2C1 | 59.1 | –
COC[C@H](C)Nc1nc2c(nc1N1CCC(Oc3ccc(F)cc3F)CC1)CCN(C(C)=O)C2 | – | IC50 [2]: 107 nM
CC(=O)N1CCc2nc(N3CCC(Oc4ccc(F)cc4F)CC3)c(N[C@H]3C[C@H](O)C3)nc2C1 | 78 | –
CC(C)Nc1nc2c(nc1N1CCC(Oc3ccc(F)cc3F)CC1)CN(S(C)(=O)=O)CC2 | 95.6 | –
CC(C)Nc1nc2c(nc1N1CCC(Oc3ccc(F)cc3F)CC1)CCN(C(=O)C(F)F)C2C (stereo not given) | 95 | –
CC[C@@H](C)Nc1nc2c(nc1N1CCC(Oc3ccc(F)cc3F)CC1)CCN(C(C)=O)C2 | 319 | –
CC(=O)N1CCc2nc(N3CCN(Cc4ccc(F)cc4F)CC3)c(N[C@H]3C[C@@H](O)C3)nc2C1 | 122 | –
COC(=O)N1CCc2nc(NC(C)C)c(N3CCC(Oc4ccc(F)cc4F)CC3)nc2C1 | 132 | –
CC(C)Nc1nc2c(nc1N1CCC(Oc3ccc(F)cc3F)CC1)CCN(C(=O)N(C)C)C2C (stereo not given) | 110 | –
CC(C)Nc1nc2c(nc1N1CCC(Oc3ccc(F)cc3F)CC1)CN(C)CC2 | 59.5 | –
COc1ccc(S(=O)(=O)C2CCN(c3nc4c(nc3NC(C)C)CCN(C(C)=O)C4)CC2)c(F)c1 | 200 | –
CC(=O)N1CCc2nc(N3CCN(Cc4ccc(C#N)cc4F)CC3)c(NC(C)C)nc2C1 | 363 | –
CC(C)Nc1nc2c(nc1N1CCC(Oc3ccc(F)cc3F)CC1)CCN(CCF)C2 | 74.8 | –
CC(C)Nc1nc2c(nc1N1CCC(Oc3ccc(F)cc3F)CC1)CCN(C(=O)[C@@H]1CCCN1C)C2 | 78.1 | –
CC(=O)O[C@H]1C[C@@H](Nc2nc3c(nc2N2CCN(Cc4ccc(F)cc4F)CC2)CCN(C(C)=O)C3)C1 | 220 | –
CC(C)Nc1nc2c(nc1N1CCC(Oc3ccc(F)cc3F)CC1)C(C)N(C(=O)C(F)F)CC2 (stereo not given) | 116 | –
CC(=O)N1CCc2nc(N3CCC(Oc4ccc(F)cc4F)CC3)c(NC(C)C)nc2C1C (stereo not given) | 73.2 | –
CC1c2nc(N3CCC(Oc4ccc(F)cc4F)CC3)c(NCC(F)F)nc2CCN1C(=O)N(C)C (stereo not given) | 93.5 | –

SMILES | IC50 ([2]; cho-k1) [nM] | also measured
CC(C)Nc1nc2c(nc1N1CCC(Oc3ccc(F)cc3F)CC1)CN(C=O)CC2 | 43.2 | –
CC(C)Nc1nc2c(nc1N1CCN(Cc3ccc(F)cc3F)CC1)CCN(C(=O)C(C)C)C2 | 29 | –
CC(=O)N1CCc2nc(N3CCN(Cc4ccc(F)cc4F)CC3)c(N[C@H]3C[C@H](F)C3)nc2C1 | 186 | –
COCC(=O)N1CCc2nc(N3CCC(Oc4ccc(F)cc4F)CC3)c(NC(C)C)nc2C1 | 71.5 | –
CC1c2nc(N3CCC(Oc4ccc(F)cc4F)CC3)c(NCC(F)F)nc2CCN1C(=O)C(F)F (stereo not given) | 193 | –
COc1ccc(OC2CCN(c3nc4c(nc3NC(C)C)CN(C(C)=O)CC4)CC2)c(F)c1 | 74.1 | –
CC(=O)O[C@H]1C[C@H](Nc2nc3c(nc2N2CCC(Oc4ccc(F)cc4F)CC2)CCN(C(C)=O)C3)C1 | 604 | –
CC(=O)N1CCc2nc(N3CCC(Oc4ccc(F)cc4F)CC3)c(NCC(F)F)nc2C1 | 49.7 | –
CC(=O)N1CCc2nc(N3CCC([C@H](F)c4ccc(F)cc4F)CC3)c(NC(C)C)nc2C1 | 27.4 | –
CC(C)Nc1nc2c(nc1N1CCC([C@H](F)c3ccc(F)cc3F)CC1)CCN(C=O)C2 | 11.4 | –
CC(C)Nc1nc2c(nc1N1CCC([C@@H](F)c3ccc(F)cc3F)CC1)CCN(C=O)C2 | 23.6 | –
CC(=O)N1CCc2nc(N3CCC(Oc4ccc(F)cc4F)CC3)c(N[C@H]3C[C@@H](O)C3)nc2C1 | 61.5 | –
COC(=O)N1CCc2nc(N3CCC(Oc4ccc(F)cc4F)CC3)c(NC(C)C)nc2C1 | 130 | –
COc1cccc(S(=O)(=O)C2CCN(c3nc4c(nc3NC(C)C)CCN(C(C)=O)C4)CC2)c1 | 342 | –
CC(C)Nc1nc2c(nc1N1CCN(Cc3ccc(F)cc3F)CC1)CCN(S(C)(=O)=O)C2 | 27.9 | –
CCC(=O)N1CCc2nc(N3CCC(Oc4ccc(F)cc4F)CC3)c(N[C@H]3CCOC3)nc2C1 | 39.2 | –
CC(C)Nc1nc2c(nc1N1CCC(Oc3ccc(F)cc3F)CC1)CN(CCF)CC2 | 69.2 | –
CC(=O)O[C@H]1C[C@@H](Nc2nc3c(nc2N2CCC(Oc4ccc(F)cc4F)CC2)CCN(C(C)=O)C3)C1 | 114 | –
O=C(C(F)F)N1CCc2nc(NCC(F)F)c(N3CCC(Oc4ccc(F)cc4F)CC3)nc2C1 | 111 | –
CC(C)Nc1nc2c(nc1N1CCC(Oc3ccc(F)cc3F)CC1)CCN(S(C)(=O)=O)C2C (stereo not given) | 59.3 | –
CC(C)Nc1nc2c(nc1N1CCC(Oc3ccc(F)cc3F)CC1)C(C)N(C(=O)N(C)C)CC2 (stereo not given) | 179 | –
CC(=O)N1CCc2nc(N3CCC(Oc4ccc(F)cc4F)CC3)c(NC3CC(F)(F)C3)nc2C1 | 35.9 | –
CC(=O)N1CCc2nc(N3CCN(Cc4ccc(F)cc4F)CC3)c(N[C@@H]3CCOC3)nc2C1 | 63.2 | –
CC(=O)N1CCc2nc(NC(C)C)c(N3CCC(S(=O)(=O)c4ccccc4F)CC3)nc2C1 | 247 | –
CCC(=O)N1CCc2nc(N3CCC(Oc4ccc(F)cc4F)CC3)c(NC(C)C)nc2C1 | 27.6 | –
COC[C@@H](C)Nc1nc2c(nc1N1CCC(Oc3ccc(F)cc3F)CC1)CCN(C(C)=O)C2 | – | IC50 [2]: > 1000 nM
